Measurements taken from patent US20030017148A1, “Prevention of insulin-dependent diabetes, complications thereof, or allograft rejection by inhibition of cyclooxygenase-2 activity” (Oklahoma Medical Research Foundation, priority 2000, published 2003).
Several values for one entry are separate records, joined by “and”; a condition that tells them apart may be missing. Identical values can stand only once.

How the values were obtained:
[1] = system: IDDM in low-dose STZ model; details: cited from earlier work
STZ-induced IDDM [2] = assay: Multiple low-dose STZ-induced IDDM in CD-1 mice, PDTC treatment; format: in vivo; details: for Blood Glucose Level: STZ 40 mg/Kg 5 days, PDTC 150 mg/Kg daily, 100 mg/Kg from day 7, 11 treatments
Procedure: Method. CD-1 mice were divided into two groups (6 mice/group). Group 1 was treated with STZ (40 mg/Kg dissolved in cold sodium citrate buffer, pH 4.5) for 5 consecutive days. Group 2 was treated with STZ as described and received daily treatments of PDTC (150 mg/Kg, dissolved in physiological saline) starting from day 1 of STZ treatment. The PDTC dose was reduced to 100 mg/Kg at day 7 of the treatment. A total of 11 daily treatments of PDTC were given to the mice in this group (up to day 11 from the start of STZ treatment). Blood glucose levels were periodically determined in these mice.

[3] = in vivo; cited from earlier work
[4] = Tolerability of indomethacin in STZ-treated mice; details: indomethacin 3 mg/Kg/day with STZ 40 mg/Kg/day for 5 days; 5 mice/group
Procedure: In experiment 4, two groups of mice (5 mice/group) were treated with STZ (40 mg/Kg/day for 5 days). One group of these mice received daily treatments of indomethacin (3 mg/Kg/day). Indomethacin was dissolved in DMSO and an injection volume of 40 μl was used.

STZ-induced IDDM [5] = assay: Multiple low-dose STZ-induced IDDM in mice, NS-398 treatment; format: in vivo
Procedure: Chemicals: Streptozotocin was obtained from Sigma Chemical Company (St. Louis, Mo.). NS-398 was obtained from Cayman Chemicals (Ann Arbor, Mich.). Determination of blood glucose level was performed using the glucose oxidase kit obtained from Sigma Chemical Co. Total glycated hemoglobin (Hb A1) was measured using a kit from Sigma. Animal treatment: Ball/c or CD-1 mice (male, 6-8 weeks) from Charles-River (Indianapolis, Ind.) were used in this study. STZ was dissolved in citrate buffer pH 4.5 and was administered within 10 minutes of its dissolution. Animals receiving NS-398 treatment were injected with this compound 15 min prior to STZ treatment. Since STZ is both toxic and carcinogenic, extreme caution was practiced in its handling. NS-398 was dissolved in dimethylsulfoxide (DMSO). […] To control for the effect of DMSO, mice in the STZ group received 40 μl injections of DMSO for the same number of days as the STZ+NS-398 group. At different time intervals after the treatments, tail tip blood was drawn and used for the measurement of blood glucose levels and/or glycated hemoglobin. [table] […] PBS (control group) for 5 consecutive days. […] The STZ group received only STZ injections. […] For histological studies, 35 days following the treatments (multiple low-dose STZ±NS-398), mice were anaesthetized and perfused with 4% paraformaldehyde and pancreata were removed and post-fixed for an additional day. The paraffin sections (6 μ) were stained with Gambier's aldehyde fuchsia for the identification of pancreatic β cells. Untreated mice were used as controls for these studies. Statistical analyses: Statistical analyses of the data were performed using one way analysis of variance (Anoa) followed by Student's t-test. In order to determine whether NS-398 treatment would protect the animals against the diabetogenic action of STZ, blood glucose level, and the level of glycated hemoglobin (a marker of chronic hyperglycemia) were monitored in the mice treated with STZ in the absence and presence of NS-398. Histological studies were also performed on the pancreata of the treated animals in order to obtain morphological information on the status of the islet β cells.

[6] = system: high-dose STZ-induced IDDM; assay: Single high-dose STZ-induced IDDM in mice, NS-398 pre-treatment; format: in vivo; details: 48 h after single STZ 220 mg/Kg; NS-398 10 mg/Kg 15 min prior to STZ
Procedure: Animal treatment: Ball/c or CD-1 mice (male, 6-8 weeks) from Charles-River (Indianapolis, Ind.) were used in this study. STZ was dissolved in citrate buffer pH 4.5 and was administered within 10 minutes of its dissolution. Animals receiving NS-398 treatment were injected with this compound 15 min prior to STZ treatment. Since STZ is both toxic and carcinogenic, extreme caution was practiced in its handling. NS-398 was dissolved in dimethylsulfoxide (DMSO). […] To control for the effect of DMSO, mice in the STZ group received 40 μl injections of DMSO for the same number of days as the STZ+NS-398 group. At different time intervals after the treatments, tail tip blood was drawn and used for the measurement of blood glucose levels and/or glycated hemoglobin. [table] […] PBS (control group) for 5 consecutive days. […] The STZ group received only STZ injections.

COX-2 = biological target: T1, COX-2 (Homo sapiens, UniProt P35354); details: cellular systems; cited from earlier work
T1 sequence (P35354 18-604): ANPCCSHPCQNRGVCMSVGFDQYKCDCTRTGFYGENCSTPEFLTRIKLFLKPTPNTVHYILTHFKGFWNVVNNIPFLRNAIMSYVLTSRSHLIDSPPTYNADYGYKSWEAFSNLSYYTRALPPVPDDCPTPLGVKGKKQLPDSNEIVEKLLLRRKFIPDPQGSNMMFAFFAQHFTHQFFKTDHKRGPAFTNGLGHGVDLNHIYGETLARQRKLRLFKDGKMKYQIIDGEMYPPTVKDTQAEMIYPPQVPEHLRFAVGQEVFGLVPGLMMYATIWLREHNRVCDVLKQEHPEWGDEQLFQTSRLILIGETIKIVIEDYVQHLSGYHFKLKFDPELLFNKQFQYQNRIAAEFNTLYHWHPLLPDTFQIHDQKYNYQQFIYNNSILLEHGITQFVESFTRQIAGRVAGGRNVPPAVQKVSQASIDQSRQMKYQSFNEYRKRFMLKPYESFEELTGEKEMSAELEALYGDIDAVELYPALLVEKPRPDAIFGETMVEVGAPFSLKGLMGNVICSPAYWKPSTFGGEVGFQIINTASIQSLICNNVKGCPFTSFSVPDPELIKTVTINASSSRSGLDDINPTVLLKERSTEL

CC(C)(C)[N+]([O-])=Cc1ccccc1 [PBN, phenyl N-tert-butylnitrone]
protection against IDDM [1]: protect against IDDM

S=C(S)N1CCCC1 [PDTC, Pyrrolidine Dithiocarbamate]
protection from STZ-induced IDDM (STZ-induced IDDM [2]; PDTC daily from day 1 of STZ treatment): protected from STZ-induced IDDM
Blood Glucose Level (STZ-induced IDDM [2]; day 11 of treatment): 190.8 ± 23.2 mg/dL
Blood Glucose Level (STZ-induced IDDM [2]; day 19 of treatment): 199.6 mg/dL and 199.6 ± 35.6 mg/dL

CS(=O)(=O)Nc1cc2c(cc1Sc1ccc(F)cc1F)C(=O)CC2 [L-745,337, 5-methane sulfonamido-6-(2,4-difluorothiophenyl)-1-indanone]
ED50 [3]: 2 mg/kg
ID50 [3]: 0.4 mg/kg

COc1ccc2c(c1)c(CC(=O)O)c(C)n2C(=O)c1ccc(Cl)cc1 [indomethacin]
mice that died during or following treatment [4]: Four out of five

CS(=O)(=O)Nc1cc2c(cc1Oc1ccc(F)cc1F)C(=O)CC2 [Flosulide]
ID50 [3]: < 0.1 mg/kg

CCSc1nnc(-c2cc(C(C)(C)C)c(O)c(C(C)(C)C)c2)s1 [PD164387]
ED40 [3]: 7.1 mg/kg

CN(N=O)C(=O)N[C@H]1C(O)O[C@H](CO)[C@@H](O)[C@@H]1O (mixture of isomers) [STZ, Streptozotocin]
Blood Glucose Level (STZ-induced IDDM [5]; 30 days following completion of STZ treatment, STZ 40 mg/Kg/day 5 days, NS-398 5 mg/Kg/day ip from day 1, continued 6 days after STZ, mean ± SD): 304.0 ± 91.6 mg/dL
glycated hemoglobin level (FIG. 2) (STZ-induced IDDM [5]; 30 days following treatment, STZ 40 mg/Kg/day 5 days ± NS-398): significantly elevated levels of glycated hemoglobin
histology of pancreatic islet β cells (aldehyde fuchsin, FIG. 3) (STZ-induced IDDM [5]; 35 days following multiple low-dose STZ ± NS-398): nearly completely destroyed
blood glucose level (FIG. 1) (STZ-induced IDDM [5]; experiment 1: STZ 40 mg/Kg/day ip 5 days, NS-398 10 mg/Kg/day, 11 injections from day 1, followed up to 28 days after cessation of NS-398): progressive rise in the blood glucose concentration
Blood Glucose Level [6]: 311.1 ± 80.7 mg/dL
Blood Glucose Level (STZ-induced IDDM [2]; day 11 of treatment): 249.0 ± 50.2 mg/dL
Blood Glucose Level (STZ-induced IDDM [2]; day 19 of treatment): 446.7 mg/dL and 446.7 ± 106.1 mg/dL

CS(=O)(=O)c1ccc(C2=C(c3ccc(F)cc3)CCC2)cc1 [SC-57666, 1-[2-(4-Fluorophenyl)cyclopenten-1-yl]-4-(methylsulfonyl) benzene]
ED50 [3]: low

Cc1ccc(-c2ncc(Cl)cc2-c2ccc(S(C)(=O)=O)cc2)cn1 [L-791,456, 5-Chloro-3(4-methylsulfonyl) phenyl-2-(2-methyl-5-pyridinyl) pyridine]
ED50 [3]: 0.6 mg/kg

Cc1nc(C2CCCCC2)c(-c2ccc(S(N)(=O)=O)c(F)c2)o1 [JTE-522, 4-(4-cyclohexyl-2-methyloxazol-5-yl)-2-Fluorobenzene Sulfonamide]
IC50 (COX-2): 15.1 nM
